Patent KR20210056931A, “피리메타민을 유효성분으로 포함하는 면역 관련 질환의 치료 또는 예방용 약학 조성물” (priority 2019, dated 2021)
Several values for one entry are separate records, joined by “and”; a condition that tells them apart may be missing. Identical values can stand only once.

Tests used:
[1] = system: rheumatoid arthritis model, DBA-1J Mice [류마티스 관절염 모델]; assay: Arthritis score in rheumatoid arthritis animal model, dose regimen study, Experiment 6; assay type: in vivo, mouse
TNF-α [2] = assay: TNF-α expression inhibition in Raw264.7, comparison with hydroxychloroquine and proguanil, Experiment 2-3; assay type: cell-based
TNF-α [3] = assay: TNF-α expression inhibition in RAW264.7 macrophages vs PS1145 (ELISA), Experiment 1-1; assay type: cell-based; settings: Fig. 1
[4] = system: rheumatoid arthritis model, DBA-1J Mice [류마티스 관절염 모델]; assay: Paw edema in rheumatoid arthritis animal model, dose regimen study, Experiment 6; assay type: in vivo, mouse; settings: for Paw edema, HL, mean / Paw edema, HR, mean / Paw edema, HL, individual animal / Paw edema, HR, individual animal: Day 14; for Paw edema, HL, individual animal / Paw edema, HR, individual animal: listed as Py
[5] = system: rheumatoid arthritis model, DBA-1J Mice [류마티스 관절염 모델]; assay: Histopathological examination in rheumatoid arthritis animal model, dose regimen study, Experiment 6; assay type: in vivo, mouse; settings: Day 14
[6] = system: rheumatoid arthritis model, DBA-1J Mice [류마티스 관절염 모델]; assay: Paw edema in rheumatoid arthritis animal model, Experiment 5; assay type: in vivo, mouse
TNF-α [7] = assay: Plasma TNF-α (ELISA), Experiment 6-5; assay type: in vivo, mouse; settings: for Plasma TNF-α: Day 14

## CCc1nc(N)nc(N)c1-c1ccc(Cl)cc1 [피리메타민, Pyrimethamine]
[1]; Day 0, G7: Py 1 mg/kg/day QD IP
  Arthritis score: 2.5±1.0 total score
[1]; Day 0, G8: Py 1 mg/kg/day BID PO
  Arthritis score: 2.5±1.0 total score
[1]; Day 0, G9: Py 1 mg/kg/day QD PO
  Arthritis score: 2.5±1.0 total score
[1]; Day 0, G10: Py 3 mg/kg/day BID PO
  Arthritis score: 2.5±1.0 total score
[1]; Day 0, G11: Py 5 mg/kg QD PO
  Arthritis score: 2.5±1.2 total score
[1]; Day 0, G12: Py 15 mg/kg/day QD PO
  Arthritis score: 2.5±1.0 total score
[1]; Day 2, G7: Py 1 mg/kg/day QD IP
  Arthritis score: 4.7±1.6 total score
[1]; Day 2, G8: Py 1 mg/kg/day BID PO
  Arthritis score: 4.8±0.8 total score
[1]; Day 2, G9: Py 1 mg/kg/day QD PO
  Arthritis score: 4.7±1.4 total score
[1]; Day 2, G10: Py 3 mg/kg/day BID PO
  Arthritis score: 4.5±1.0 total score
[1]; Day 2, G11: Py 5 mg/kg QD PO
  Arthritis score: 4.3±2.0 total score
[1]; Day 2, G12: Py 15 mg/kg/day QD PO
  Arthritis score: 4.2±1.2 total score
[1]; Day 5, G7: Py 1 mg/kg/day QD IP
  Arthritis score: 7.2±1.9 total score
[1]; Day 5, G8: Py 1 mg/kg/day BID PO
  Arthritis score: 7.0±1.3 total score
[1]; Day 5, G9: Py 1 mg/kg/day QD PO
  Arthritis score: 6.8±1.7 total score
[1]; Day 5, G10: Py 3 mg/kg/day BID PO
  Arthritis score: 6.2±2.4 total score
[1]; Day 5, G11: Py 5 mg/kg QD PO
  Arthritis score: 5.8±2.5 total score
[1]; Day 5, G12: Py 15 mg/kg/day QD PO
  Arthritis score: 5.5±1.5 total score
[1]; Day 7, G7: Py 1 mg/kg/day QD IP
  Arthritis score: 9.2±1.5 total score
[1]; Day 7, G8: Py 1 mg/kg/day BID PO
  Arthritis score: 9.5±1.5 total score
[1]; Day 7, G9: Py 1 mg/kg/day QD PO
  Arthritis score: 9.3±2.0 total score
[1]; Day 7, G10: Py 3 mg/kg/day BID PO
  Arthritis score: 7.8±2.9 total score
[1]; Day 7, G11: Py 5 mg/kg QD PO
  Arthritis score: 6.7±2.2 total score
[1]; Day 7, G12: Py 15 mg/kg/day QD PO
  Arthritis score: 6.3±2.0 total score
[1]; Day 9, G7: Py 1 mg/kg/day QD IP
  Arthritis score: 9.8±1.9 total score
[1]; Day 9, G8: Py 1 mg/kg/day BID PO
  Arthritis score: 10.3±2.2 total score
[1]; Day 9, G9: Py 1 mg/kg/day QD PO
  Arthritis score: 10.5±2.7 total score
[1]; Day 9, G10: Py 3 mg/kg/day BID PO
  Arthritis score: 8.2±2.9 total score
[1]; Day 9, G11: Py 5 mg/kg QD PO
  Arthritis score: 7.5±3.0 total score
[1]; Day 9, G12: Py 15 mg/kg/day QD PO
  Arthritis score: 7.5±2.1 total score
[1]; Day 12, G7: Py 1 mg/kg/day QD IP
  Arthritis score: 11.2±2.5 total score
[1]; Day 12, G8: Py 1 mg/kg/day BID PO
  Arthritis score: 11.7±2.7 total score
[1]; Day 12, G9: Py 1 mg/kg/day QD PO
  Arthritis score: 12.0±2.6 total score
[1]; Day 12, G10: Py 3 mg/kg/day BID PO
  Arthritis score: 9.8±2.9 total score
[1]; Day 12, G11: Py 5 mg/kg QD PO
  Arthritis score: 8.8±2.5 total score
[1]; Day 12, G12: Py 15 mg/kg/day QD PO
  Arthritis score: 7.7±2.1 total score
[1]; Day 14, G7: Py 1 mg/kg/day QD IP
  Arthritis score: 11.7±2.7 total score
[1]; Day 14, G8: Py 1 mg/kg/day BID PO
  Arthritis score: 12.3±2.9 total score
[1]; Day 14, G9: Py 1 mg/kg/day QD PO
  Arthritis score: 12.7±2.9 total score
[1]; Day 14, G10: Py 3 mg/kg/day BID PO
  Arthritis score: 10.5±3.0 total score
[1]; Day 14, G11: Py 5 mg/kg QD PO
  Arthritis score: 9.5±2.6 total score
[1]; Day 14, G12: Py 15 mg/kg/day QD PO
  Arthritis score: 8.2±2.0 total score
[1]; Py 1 mg/kg/day QD PO and IP, 1 and 3 mg/kg/day BID PO, 5 mg/kg/day QD PO
  Arthritis score (in words): 관절염 지수가 개선되지 않은
[1]; Py 15 mg/kg/day QD PO
  Arthritis score (in words): 관절염 지수가 현저하게 감소
TNF-α [2]; PY 0.2 uM, HCQ 0.61 uM, PG 5 uM, LPS 10 ng/mL, 24 h co-treatment
  TNF-α expression: 667.9
TNF-α [2]; drug treatment 2 h or 24 h, pyrimethamine 0.2 μM, proguanil 5 μM
  TNF-α expression inhibition: 히드록시클로로퀸과 비교하였을 때 피리메타민의 TNF-α 발현량 억제능이 월등함
TNF-α [3]; pyrimethamine 2, 10, 50 ng/ml
  TNF-α expression: TNF-α의 발현량이 현저하게 줄어들었으며
TNF-α [3]; pyrimethamine 10 or 50 ng/ml vs PS1145 20 uM
  TNF-α expression compared with PS1145: 비교예(PS1145)에 비해 TNF-α의 발현이 보다 현저하게 줄어드는
[4]; G7: Py 1 mg/kg/day QD IP
  Paw edema, HL, mean: 0.17 mL
  Paw edema, HR, mean: 0.17 mL
  Paw edema, HL, individual animal: 0.18 mL and 0.19 mL and 0.17 mL and 0.12 mL and 0.14 mL
  Paw edema, HR, individual animal: 0.17 mL and 0.18 mL and 0.14 mL and 0.19 mL
[4]; G8: Py 1 mg/kg/day BID PO
  Paw edema, HL, mean: 0.16 mL
  Paw edema, HR, mean: 0.17 mL
  Paw edema, HL, individual animal: 0.14 mL and 0.13 mL and 0.17 mL and 0.19 mL and 0.20 mL
  Paw edema, HR, individual animal: 0.18 mL and 0.19 mL and 0.17 mL and 0.14 mL
[4]; G9: Py 1 mg/kg/day QD PO
  Paw edema, HL, mean: 0.17 mL
  Paw edema, HR, mean: 0.18 mL
  Paw edema, HL, individual animal: 0.13 mL and 0.20 mL and 0.17 mL and 0.19 mL
  Paw edema, HR, individual animal: 0.19 mL and 0.16 mL and 0.17 mL
[4]; G10: Py 3 mg/kg/day BID PO
  Paw edema, HL, mean: 0.15 mL
  Paw edema, HR, mean: 0.16 mL
  Paw edema, HL, individual animal: 0.16 mL and 0.20 mL and 0.13 mL and 0.15 mL
  Paw edema, HR, individual animal: 0.17 mL and 0.14 mL and 0.16 mL and 0.15 mL and 0.19 mL
[4]; G11: Py 5 mg/kg QD PO
  Paw edema, HL, mean: 0.18 mL
  Paw edema, HR, mean: 0.18 mL
  Paw edema, HL, individual animal: 0.16 mL and 0.20 mL and 0.19 mL and 0.17 mL and 0.14 mL
  Paw edema, HR, individual animal: 0.19 mL and 0.20 mL and 0.16 mL
[4]; G12: Py 15 mg/kg/day QD PO
  Paw edema, HL, mean: 0.14 mL
  Paw edema, HR, mean: 0.14 mL
  Paw edema, HL, individual animal: 0.19 mL and 0.13 mL and 0.11 mL and 0.14 mL
  Paw edema, HR, individual animal: 0.11 mL and 0.16 mL and 0.14 mL and 0.13 mL and 0.15 mL
[4]; Py 15 mg/kg/day QD PO
  Paw edema (in words): 피리메타민 15 mg/kg/day QD 경구투여군에서만 개선
[5]
  Efficacy by histopathology compared with hydroxychloroquine and tofacitinib (in words): 히드록시클로로퀸과 토파시티닙에 비해 보다 우수한 효과
  Efficacy by histopathology compared with methotrexate (in words): 메토트렉세이트와 유사한 수준의 관절염 치료 효능
  Therapeutic efficacy by histopathology (in words): 농도 의존적으로 치료 효능을 보였다
[5]; G7: Py 1 mg/kg/day QD IP
  Bone destruction: 2.5±0.5
  Cartilage damage: 2.2±1.0
  Histopathological examination, total: 7.7±1.5
  Synovium proliferation: 3.0±0.0
[5]; G8: Py 1 mg/kg/day BID PO
  Bone destruction: 2.8±0.4
  Cartilage damage: 2.3±1.2
  Histopathological examination, total: 7.8±2.4
  Synovium proliferation: 2.7±0.8
[5]; G9: Py 1 mg/kg/day QD PO
  Bone destruction: 2.5±0.8
  Cartilage damage: 2.3±0.8
  Histopathological examination, total: 7.8±1.6
  Synovium proliferation: 3.0±0.0
[5]; G10: Py 3 mg/kg/day BID PO
  Bone destruction: 2.8±0.4
  Cartilage damage: 2.0±0.6
  Histopathological examination, total: 7.8±0.8
  Synovium proliferation: 3.0±0.0
[5]; G11: Py 5 mg/kg QD PO
  Bone destruction: 2.0±0.9
  Cartilage damage: 1.7±0.8
  Histopathological examination, total: 6.7±1.5
  Synovium proliferation: 3.0±0.0
[5]; G12: Py 15 mg/kg/day QD PO
  Bone destruction: 2.2±0.4
  Cartilage damage: 1.5±0.5
  Histopathological examination, total: 6.3±0.8
  Synovium proliferation: 2.7±0.5
[6]; Day 0, G4: Py 10 mg/kg/day PO
  Paw edema, LEFT: 0.11 ± 0.01 mL
  Paw edema, RIGHT: 0.10 ± 0.00 mL
[6]; Day 0, G5: Py 30 mg/kg/day PO
  Paw edema, LEFT: 0.11 ± 0.02 mL
  Paw edema, RIGHT: 0.10 ± 0.01 mL
[6]; Day 14, G4: Py 10 mg/kg/day PO
  Paw edema, LEFT: 0.15 ± 0.03 mL
  Paw edema, RIGHT: 0.12 ± 0.01 mL
[6]; Day 14, G5: Py 30 mg/kg/day PO
  Paw edema, LEFT: 0.11 ± 0.03 mL
  Paw edema, RIGHT: 0.11 ± 0.02 mL
TNF-α [7]; G7: Py 1 mg/kg/day QD IP
  Plasma TNF-α: 879.4 pg/mL
TNF-α [7]; G8: Py 1 mg/kg/day BID PO
  Plasma TNF-α: 867.2 pg/mL
TNF-α [7]; G9: Py 1 mg/kg/day QD PO
  Plasma TNF-α: 863.5 pg/mL
TNF-α [7]; G10: Py 3 mg/kg/day BID PO
  Plasma TNF-α: 818.8 pg/mL
TNF-α [7]; G11: Py 5 mg/kg QD PO
  Plasma TNF-α: 763.7 pg/mL
TNF-α [7]; G12: Py 15 mg/kg/day QD PO
  Plasma TNF-α: 728.0 pg/mL
TNF-α [7]; pyrimethamine oral groups
  Plasma TNF-α (in words): 농도 의존적으로 혈장 TNF-α 수치가 감소
